13 compounds from US12312419B2, “Hemiasterlin derivative having cysteine residue” (priority 2019, dated 2025) can be followed below.

SMILES strings stand for the structures. A value given as a limit tells only on which side of the number the result lay.

The test system of experiment [1] is Karpas-299 cells. In words: Cellular toxicity test (1), CellTiter-Glo cell viability. Particulars: Homo sapiens, 96 h; Karpas-299; cultured 4 days; cell viability. It counts as cell-based, human. On the procedure:
Karpas-299 cells (European Collection of Authenticated Cell Cultures, hereinafter, ECACC), which are human lymphoma cell lines, were cultured in RPMI 1640 (GIBCO) containing 10% fetal bovine serum (MP Biomedicals) (hereinafter, referred to as the “culture medium”). Cells were prepared to be 2×10^5 cells/mL in the culture medium, and were added to a 96 well microplate for cell culturing in an amount of 50 μL for each well. Compounds of Examples or the Comparative Example compound 4 times diluted with the culture medium in 8 stages were added to the microplate in an amount of 50 μL for each well. These were cultured at 37° C. under 5% CO2 for 4 days. After culturing, the microplate was taken out from the incubator, and was left at rest at room temperature for 10 minutes. To each well, 50 μL of CellTiter-Glo Luminescent Cell Viability Assay (Promega) was added, and the resultant mixture was stirred. This mixture was incubated at a dark place for 20 minutes. Using a microplate luminometer, luminescence at each well was measured, thereby calculating the cell viability. From the value of the cell viability, the IC50 value was calculated.
The IC50 value was calculated by the following formula: IC50(nM)=antilog(LOG10(a/b)×(e−d)/(c−d)+LOG10b) • a: concentration a of test substance • b: concentration b of test substance • c: cell viability upon adding test substance with concentration a • d: cell viability upon adding test substance with concentration b • e: intermediate value between maximum and minimum among cell viabilities upon adding test substances with different concentrations (a and b are concentrations crossing the cell viability e, and a>b is indicated).
The cell viability at each concentration was calculated by the following formula: Cell Viability (%)=a′/b′×100 • a′: mean value of luminescence amount of wells to which test substance was added (n=6) • b′: mean value of luminescence amount of wells to which test substance was not added (n=6) • (n represents the number of evaluations performed per test substance concentration).

Experiment [2] concerns porcine tubulin. In words: Evaluation of activity for inhibiting microtubule polymerization using porcine tubulins (2). The class given is biochemical. Conditions: compound 9.1 μM; 60 minutes after assay initiation; relative to wells without compound; lower = stronger inhibition. As to the method:
Using a tubulin polymerization inhibition assay kit (catalog number: BK006P) purchased from Cytoskeleton Inc., the polymerization inhibitory activity of compounds of Examples with a concentration of 9.1 μM was evaluated in accordance with the protocol appended to the kit. To a 96 well microplate, 80 mM PIPES pH 6.9, 2 mM MgCl, 0.5 mM EGTA and 5% DMSO buffered solution of the compound to be evaluated was added in an amount of 10 μL for each well, and to these wells, 3 mg/mL porcine tubulin 80 mM PIPES pH 6.9, 2 mM MgCl, 0.5 mM EGTA, 1 mM GTP and 10.2% glycerol solution was added in an amount of 100 μL for each well. In order to examine a state in which tubulins polymerize over time, the absorbance at 340 nm was measured at 37° C., using a microplate reader. As the polymerization of tubulins progresses, the absorbance at 340 nm rises.
The tubulin polymerization inhibitory activity was evaluated based on the proportion of polymerized tubulins 60 minutes after the assay initiation. Specifically, the microtubule polymerization rate (%) was calculated by dividing the absorbance of tubulins that had polymerized at wells to which the compound had been added by the absorbance of tubulins that had polymerized at wells to which the compound had not been added, and multiplying the obtained value by 100.

In the case of `CN[C@H](C(=O)N[C@H](C(=O)N(C)[C@H](/C=C(\C)C(=O)NCCCCNC(=O)CCCCCN1C(=O)CC(SC[C@H](N)C(=O)O)C1=O)C(C)C)C(C)(C)C)C(C)(C)c1cn(C)c2ccccc12` (stereo partly drawn) [Comparative Example compound 2, reference compound], the midpoint of inhibition in experiment [1], the IC50, lay at 30 nM. Further, in experiment [2], the “Microtubule polymerization rate (%)” value is listed as 0%.
The compound `CN[C@H](C(=O)N[C@H](C(=O)N(C)[C@H](/C=C(\C)C(=O)N[C@@H](CCC(=O)NCCN1C(=O)CC(SC[C@H](N)C(=O)O)C1=O)C(=O)O)C(C)C)C(C)(C)C)C(C)(C)c1ccccc1` (stereo partly drawn) [Example MM11] registered an IC50 in experiment [1] of more than 1000 nM. Further, in experiment [2], the “Microtubule polymerization rate (%)” value is 0%.
Consider `CN[C@H](C(=O)N[C@H](C(=O)N(C)[C@H](/C=C(\C)C(=O)N[C@H](CCC(=O)O)C(=O)NCCN1C(=O)CC(SC[C@H](N)C(=O)O)C1=O)C(C)C)C(C)(C)C)C(C)(C)c1ccccc1` (stereo partly drawn) [Example MM15], for which the half-maximal inhibitory concentration (IC50) in experiment [1] was more than 1000 nM. Further, the “Microtubule polymerization rate (%)” value in experiment [2] is given as 0%.
In the same order, the values of `CN[C@H](C(=O)N[C@H](C(=O)N(C)[C@H](/C=C(\C)C(=O)N[C@H](CCC(=O)NCCCCN1C(=O)CC(SC[C@H](N)C(=O)O)C1=O)C(=O)O)C(C)C)C(C)(C)C)C(C)(C)c1ccccc1` (stereo partly drawn) [Example MM17] are 850 nM and 0%.
In experiment [1], `CN[C@H](C(=O)N[C@H](C(=O)N(C)[C@H](/C=C(\C)C(=O)N[C@@H](CCC(=O)NCCN1C(=O)CC(SC[C@H](N)C(=O)O)C1=O)C(=O)O)C(C)C)C(C)(C)C)C(C)(C)c1cn(C)c2ccccc12` (stereo partly drawn) [Example MM18] displayed an IC50 of 541 nM. In experiment [2], the “Microtubule polymerization rate (%)” value worked out at 0%.
The matching figures for `CN[C@H](C(=O)N[C@H](C(=O)N(C)[C@H](/C=C(\C)C(=O)N[C@H](CCC(=O)NCCCN1C(=O)CC(SC[C@H](N)C(=O)O)C1=O)C(=O)O)C(C)C)C(C)(C)C)C(C)(C)c1cn(C)c2ccccc12` (stereo partly drawn) [Example MM23]: 942 nM and 0%.
The matching figures for `CN[C@H](C(=O)N[C@H](C(=O)N(C)[C@H](/C=C(\C)C(=O)NCCCC[C@@H](NC(=O)CCCN1C(=O)CC(SC[C@H](N)C(=O)O)C1=O)C(=O)O)C(C)C)C(C)(C)C)C(C)(C)c1ccccc1` (stereo partly drawn) [Example MM28]: more than 1000 nM and 0%.
The matching figures for `CN[C@H](C(=O)N[C@H](C(=O)N(C)[C@H](/C=C(\C)C(=O)N[C@H](CCC(=O)NCCN1C(=O)CC(SC[C@H](N)C(=O)O)C1=O)C(=O)O)C(C)C)C(C)(C)C)C(C)(C)c1cccc(C(F)(F)F)c1` (stereo partly drawn) [Example MM30]: more than 1000 nM and 12%.
In experiment [1], `CN[C@H](C(=O)N[C@H](C(=O)N(C)[C@H](/C=C(\C)C(=O)N[C@H](CCC(=O)NCCN1C(=O)CC(SC[C@H](N)C(=O)O)C1=O)C(=O)O)C(C)C)C(C)(C)C)C(C)(C)c1ccc2ccccc2c1` (stereo partly drawn) [Example MM38] returned an IC50 of 726 nM.
Still for that read-out and setting: in the case of `CN[C@H](C(=O)N[C@H](C(=O)N(C)[C@H](/C=C(\C)C(=O)N[C@H](CCC(=O)NCCN1C(=O)CC(SC[C@H](N)C(=O)O)C1=O)C(=O)O)C(C)C)C(C)(C)C)C(C)(C)c1cccc(-c2ccccc2)c1` (stereo partly drawn) [Example MM39] it was 118 nM; in that of `CN[C@H](C(=O)N[C@H](C(=O)N(C)[C@H](/C=C(\C)C(=O)N[C@H](CCC(=O)NCCN1C(=O)CC(SC[C@H](N)C(=O)O)C1=O)C(=O)O)C(C)C)C(C)(C)C)C(C)(C)c1cccc(C)c1` (stereo partly drawn) [Example MM40], 146 nM.
On the same count and under the same terms, in the case of `CNC(C(=O)N[C@H](C(=O)N(C)[C@H](/C=C(\C)C(=O)N[C@H](CCC(=O)O)C(=O)O)C(C)C)C(C)(C)C)C(C)(C)c1ccc(C(=O)NCCN2C(=O)CC(SC[C@H](N)C(=O)O)C2=O)cc1` (stereo partly drawn) [Example MM43] it was more than 1000 nM; in that of `C/C(=C\[C@H](C(C)C)N(C)C(=O)[C@@H](NC(=O)[C@@H](NC(=O)CCCCCN1C(=O)CC(SC[C@H](N)C(=O)O)C1=O)C(C)(C)c1cn(C)c2ccccc12)C(C)(C)C)C(=O)N[C@H](CCC(=O)O)C(=O)O` (stereo partly drawn) [Example MM44], more than 1000 nM.
